Source: patent US20220119354A1, “DIAMINO-SUBSTITUTED PYRIDINES AND PYRIMIDINES AS HERBICIDES” (FMC Corporation, priority 2019, published 2022)

Legend:
Type in all cases: in vivo
[1] = test system: ragweed (common ragweed, Ambrosia elatior); assay: Test A preemergence, ragweed; conditions: 0 to 100 scale
How it was run: (§1)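 Post: seedlings 2–10 cm, 1–2 leaves, foliar spray. Pre: soil spray after sowing in loam/sand blend. Both formulated in non-phytotoxic solvent with surfactant; injury scored visually 0–100 after ~10 d.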

[2] = test system: ryegrass, Italian (Lolium multiflorum); assay: Test A preemergence, Italian ryegrass; conditions: 0 to 100 scale
How it was run: as §1

[3] = test system: galium (catchweed bedstraw, Galium aparine); assay: Test A postemergence, galium; conditions: 0 to 100 scale
How it was run: as §1

[4] = test system: ryegrass, Italian (Lolium multiflorum); assay: Test A postemergence, Italian ryegrass; conditions: 0 to 100 scale
How it was run: as §1

[5] = test system: barnyardgrass (Echinochloa crus-galli); assay: Test B flooded paddy test, barnyardgrass; conditions: Flood, 250 g ai/ha, applied to paddy water, 2-leaf stage, visual evaluation after 13 to 15 d
How it was run: (§2)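 2-leaf seedlings; pots flooded 3 cm above soil; compound added straight to paddy water; depth maintained. Greenhouse 13–15 d. Visual rating vs controls, 0–100 scale (0 = no effect, 100 = complete control).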

[6] = test system: kochia (Kochia scoparia); assay: Test A postemergence, kochia; conditions: 0 to 100 scale
How it was run: as §1

[7] = test system: barnyardgrass (Echinochloa crus-galli); assay: Test A preemergence, barnyardgrass; conditions: 0 to 100 scale
How it was run: as §1

[8] = test system: foxtail, giant (Setaria faberii); assay: Test A preemergence, giant foxtail; conditions: 0 to 100 scale
How it was run: as §1

[9] = test system: sedge, umbrella (small-flower umbrella sedge, Cyperus difformis); assay: Test B flooded paddy test, umbrella sedge; conditions: Flood, 250 g ai/ha, applied to paddy water, 2-leaf stage, visual evaluation after 13 to 15 d
How it was run: as §2

[10] = test system: ducksalad (Heteranthera limosa); assay: Test B flooded paddy test, ducksalad; conditions: Flood, 250 g ai/ha, applied to paddy water, 2-leaf stage, visual evaluation after 13 to 15 d
How it was run: as §2

[11] = test system: pigweed (Amaranthus retroflexus); assay: Test A preemergence, pigweed; conditions: 0 to 100 scale
How it was run: as §1

[12] = test system: corn (Zea mays); assay: Test A postemergence, corn; conditions: 0 to 100 scale
How it was run: as §1

[13] = test system: kochia (Kochia scoparia); assay: Test A preemergence, kochia; conditions: 0 to 100 scale
How it was run: as §1

[14] = test system: barnyardgrass (Echinochloa crus-galli); assay: Test A postemergence, barnyardgrass; conditions: 0 to 100 scale
How it was run: as §1

[15] = test system: ragweed (common ragweed, Ambrosia elatior); assay: Test A postemergence, ragweed; conditions: 0 to 100 scale
How it was run: as §1

[16] = test system: rice (Oryza sativa); assay: Test B flooded paddy test, rice; conditions: Flood, 250 g ai/ha, applied to paddy water, 2-leaf stage, visual evaluation after 13 to 15 d
How it was run: as §2

[17] = test system: pigweed (Amaranthus retroflexus); assay: Test A postemergence, pigweed; conditions: 0 to 100 scale
How it was run: as §1

[18] = test system: wheat (Triticum aestivum); assay: Test A postemergence, wheat; conditions: 0 to 100 scale
How it was run: as §1

[19] = test system: blackgrass (Alopecurus myosuroides); assay: Test A postemergence, blackgrass; conditions: 0 to 100 scale
How it was run: as §1

[20] = test system: foxtail, giant (Setaria faberii); assay: Test A postemergence, giant foxtail; conditions: 0 to 100 scale
How it was run: as §1

Cc1cc2cc([C@@H](C)Nc3ncc(C(F)(F)F)c(N)n3)oc2cc1C [Compound 11]
0: Plant response rating, Ragweed ([1]; 125 g ai/ha) | Plant response rating, Ryegrass, Italian ([4]; 125 g ai/ha) | Plant response rating, Ryegrass, Italian ([4]; 500 g ai/ha) | Plant response rating, Barnyardgrass (0 to 100 scale, 0 is no effect, 100 is complete control) [5] | Plant response rating, Sedge, Umbrella (0 to 100 scale, 0 is no effect, 100 is complete control) [9] | Plant response rating, Ducksalad (0 to 100 scale, 0 is no effect, 100 is complete control) [10] | Plant response rating, Corn ([12]; 500 g ai/ha) | Plant response rating, Kochia ([13]; 125 g ai/ha) | Plant response rating, Rice (0 to 100 scale, 0 is no effect, 100 is complete control) [16] | Plant response rating, Wheat ([18]; 125 g ai/ha) | Plant response rating, Wheat ([18]; 500 g ai/ha) | Plant response rating, Blackgrass ([19]; 125 g ai/ha) | Plant response rating, Foxtail, Giant ([20]; 125 g ai/ha)
80: Plant response rating, Foxtail, Giant ([8]; 500 g ai/ha) | Plant response rating, Ragweed ([15]; 500 g ai/ha) | Plant response rating, Pigweed ([17]; 125 g ai/ha) | Plant response rating, Pigweed ([17]; 500 g ai/ha)
20: Plant response rating, Ryegrass, Italian ([2]; 125 g ai/ha) | Plant response rating, Barnyardgrass ([7]; 125 g ai/ha) | Plant response rating, Pigweed ([11]; 125 g ai/ha) | Plant response rating, Barnyardgrass ([14]; 125 g ai/ha) | Plant response rating, Blackgrass ([19]; 500 g ai/ha)
30: Plant response rating, Ryegrass, Italian ([2]; 500 g ai/ha) | Plant response rating, Kochia ([6]; 125 g ai/ha) | Plant response rating, Barnyardgrass ([14]; 500 g ai/ha)
90: Plant response rating, Ragweed ([1]; 500 g ai/ha)
10: Plant response rating, Kochia ([13]; 500 g ai/ha)
50: Plant response rating, Galium ([3]; 125 g ai/ha) | Plant response rating, Foxtail, Giant ([20]; 500 g ai/ha)
40: Plant response rating, Foxtail, Giant ([8]; 125 g ai/ha) | Plant response rating, Corn ([12]; 125 g ai/ha) | Plant response rating, Ragweed ([15]; 125 g ai/ha)
70: Plant response rating, Galium ([3]; 500 g ai/ha) | Plant response rating, Kochia ([6]; 500 g ai/ha) | Plant response rating, Barnyardgrass ([7]; 500 g ai/ha)
100: Plant response rating, Pigweed ([11]; 500 g ai/ha)
